Experimental data from BindingDB's records for doi:10.1016/j.bmcl.2003.08.070 (Wyeth Research, 2003).

Legend:
[1] = target: T1, Leukotriene B4 receptor 1 (Homo sapiens, UniProt Q15722); test: ChEBML_99664
Excerpt: (§1) Inhibitory concentration against LTB4 receptor determined in human neutrophils PMN assay

[2] = target: Leukotriene B4 receptor 1 (Mus musculus) (UniProt O88855); test: Inhibitory concentration against LTB4 receptor determined in mast cell line MC-9 assay
[3] = target: T1, Leukotriene B4 receptor 1; test: as §1

T1 sequence (Q15722 whole entry): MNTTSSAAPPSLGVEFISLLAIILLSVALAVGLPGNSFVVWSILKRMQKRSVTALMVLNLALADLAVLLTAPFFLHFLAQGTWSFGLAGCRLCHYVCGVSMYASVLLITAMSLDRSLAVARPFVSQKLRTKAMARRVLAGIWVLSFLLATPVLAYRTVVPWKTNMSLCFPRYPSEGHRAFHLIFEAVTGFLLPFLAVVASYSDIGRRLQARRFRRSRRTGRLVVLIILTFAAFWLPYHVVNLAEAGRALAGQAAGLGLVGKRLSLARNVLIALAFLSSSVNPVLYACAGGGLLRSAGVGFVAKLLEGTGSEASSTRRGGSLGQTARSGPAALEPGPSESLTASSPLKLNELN
Chain of Leukotriene B4 receptor 1 (Mus musculus) (O88855 whole entry, looked up): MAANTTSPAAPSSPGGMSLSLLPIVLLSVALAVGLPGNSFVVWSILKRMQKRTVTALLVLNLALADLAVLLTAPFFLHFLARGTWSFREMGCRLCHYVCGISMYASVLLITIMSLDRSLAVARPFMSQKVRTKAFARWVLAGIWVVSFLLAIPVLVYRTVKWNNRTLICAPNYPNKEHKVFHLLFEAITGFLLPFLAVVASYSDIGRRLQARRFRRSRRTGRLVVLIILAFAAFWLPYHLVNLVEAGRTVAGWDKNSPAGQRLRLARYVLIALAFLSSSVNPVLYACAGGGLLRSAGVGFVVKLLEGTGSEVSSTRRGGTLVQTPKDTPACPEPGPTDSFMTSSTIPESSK

SMILES: COc1cc(C(=O)O)ccc1Cc1cn(C(c2ccccc2)c2ccccc2)c2ccc(Br)cc12 [4-(1-Benzhydryl-5-bromo-1H-indol-3-ylmethyl)-3-methoxy-benzoic acid]
- IC50 [1]: 400 nM
- IC50 [2]: 1100 nM

SMILES: COc1cc(C(=O)O)ccc1Cc1cn(C(c2ccccc2)c2ccccc2)c2ccc(C)cc12 [4-(1-Benzhydryl-5-methyl-1H-indol-3-ylmethyl)-3-methoxy-benzoic acid]
- IC50 [3]: 400 nM

SMILES: COc1cc(C(=O)O)ccc1Cc1cn(C(c2ccccc2)c2ccccc2)c2ccc([N+](=O)[O-])cc12 [4-(1-Benzhydryl-5-nitro-1H-indol-3-ylmethyl)-3-methoxy-benzoic acid]
- IC50 [3]: 500 nM
- IC50 [2]: 2800 nM
